Experimental data reported in patent US8404679B2, “Pyrrolidine derivatives as NK2 receptor antagonists” (Hoffmann-La Roche Inc., priority 2008, dated 2013).

Columns and labels:
[1] = target: T1, human NK2 receptor (Homo sapiens, UniProt P21452); assay: [3H]SR48968 competition binding assay; conditions: [3H]SR48968 displacement, membranes of CHO cells stably expressing recombinant human NK2 receptor; Ki from IC50 by Cheng-Prussoff
T1 construct: purchased Perkin Elmer biosignal Inc. 6110510
T1 sequence (P21452 1-398): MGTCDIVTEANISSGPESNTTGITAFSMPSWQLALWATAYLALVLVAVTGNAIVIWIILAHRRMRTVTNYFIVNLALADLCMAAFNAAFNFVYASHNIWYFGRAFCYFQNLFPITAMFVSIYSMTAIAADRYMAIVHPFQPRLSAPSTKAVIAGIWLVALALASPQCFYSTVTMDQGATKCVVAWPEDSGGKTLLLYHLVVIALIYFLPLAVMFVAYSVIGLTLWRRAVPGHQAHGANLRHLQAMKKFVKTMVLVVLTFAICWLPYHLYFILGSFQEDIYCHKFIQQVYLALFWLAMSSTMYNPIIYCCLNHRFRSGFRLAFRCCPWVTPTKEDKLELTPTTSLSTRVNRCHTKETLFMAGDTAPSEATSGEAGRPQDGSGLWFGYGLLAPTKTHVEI
Outline: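 Membranes from CHO cells stably expressing recombinant human NK2 were incubated 75 min at RT with [3H]SR48968 at its KD and 10 compound concentrations (0.0003–10 μM) in Tris-HCl pH 7.4, MnCl2, chymostatin, BSA. Filter-bound radioactivity was counted; Hill-fitted IC50 converted to Ki via Cheng-Prusoff.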

[2] = test system: mouse, gerbils and marmosets; conditions: cited from earlier work
[3] = test system: rodents; conditions: elevated plus maze and light/dark test in rodents; cited from earlier work

| Compound | Ki [1] [nM] | efficacy in procedures sensitive to anti-depressants [2] | efficacy in exploration based procedures sensitive to anxiolytics [3] |
| --- | --- | --- | --- |
| CN(C(=O)c1ccc(Cl)c(C2CC2)c1)[C@H]1CN(C(=O)C2CCN(C(=O)C3(C)CC3)CC2)C[C@@H]1c1ccc(Cl)c(Cl)c1 [Example 175, 4-Chloro-3-cyclopropyl-N-{(3R,4S)-4-(3,4-dichloro-phenyl)-1-[1-(1-methyl-cyclopropanecarbonyl)-piperidine-4-carbonyl]-pyrrolidin-3-yl}-N-methyl-benzamide] | 42 |  |  |
| CN(C(=O)c1ccc(Cl)c(C2CC2)c1)[C@@H]1CN(C(=O)C2CCN(C(=O)C3(C)CC3)CC2)C[C@H]1c1ccc(Cl)c(Cl)c1 [Example 176, 4-Chloro-3-cyclopropyl-N-{(3S,4R)-4-(3,4-dichloro-phenyl)-1-[1-(1-methyl-cyclopropanecarbonyl)-piperidine-4-carbonyl]-pyrrolidin-3-yl}-N-methyl-benzamide] | 0.6 |  |  |
| CC(=O)NC1(c2ccccc2)CCN(CC[C@H](CN(C)C(=O)c2ccccc2)c2ccc(Cl)c(Cl)c2)CC1 [Saredutant] |  | Efficacy | effective |
